Measured values: patent publication US8487118B2, “Cyclic diones and their use as insecticides, acaricides and/or fungicides” (Bayer CropScience AG, priority 2009, dated 2013)

How the values were obtained:
[1] = test system: two spotted spidermite (Tetranychus urticae); test: Tetranychus urticae-Test, OP-resistant (TETRUR spray application); format: in vivo; details: 144 h, spray on French beans, after 6 days
Source text: Tetranychus urticae-Test; (OP-Resistant (TETRUR Spray Application)
(§1) • Solvent: 78.0 parts by weight acetone • 1.5 parts by weight dimethylformamide • Emulsifier: 0.5 parts by weight alkylarylpolyglcolether

[2] = test system: cotton aphid (Aphis gossypii); test: Aphis gossypii Test (APHIGO); format: in vivo; details: 144 h, spray on cotton leaves, after 6 days
Description: Aphis gossypii Test (APHIGO)
(§2) After 6 days mortality in % is determined.

[3] = test system: fall armyworm larvae (Spodoptera frugiperda); test: Spodoptera frugiperda-Test (SPODFR spray application); format: in vivo; details: 168 h, spray on maize leaf sections, after 7 days
Source text: Spodoptera frugiperda-Test (SPODFR Spray Application)
as §1
Maize (Zea mais) leaf sections are sprayed with a preparation of the active ingredient of the desired concentration. Once dry, the leaf sections are infested with fall armyworm larvae (Spodoptera frugiperda). […] 100% means that all caterpillars have been killed and 0% means that none of the caterpillars have been killed.

[4] = test system: mustard beetle larvae (Phaedon cochleariae); test: Phaedon cochleariae larvae-Test; details: in Brassica oleracea, 168 h, read-out: mortality in %
[5] = test system: larvae of the diamondback moth (Plutella xylostella/sensible strain); test: Plutella xylostella-Test (PLUTMA); format: in vivo; details: in Brassica oleracea, 168 h, read-out: mortality in %
Source text: Plutella xylostella-Test (PLUTMA)

[6] = test system: braun planthopper (Nilaparvata lugens); test: Nilaparvata lugens-Test (NILALU hydroponic application); format: in vivo; details: after the specified period of time
Source text: Nilaparvata lugens-Test; (NILALU Hydroponic Application)
(§3) • Solvent: 78.0 parts by weight of acetone • 1.5 parts by weight of dimethylformamide • Emulsifier: 0.5 parts by weight of alkylaryl polyglycolether

[7] = test system: Phytophthora infestans; format: in vivo; details: 500 ppm, tomato, preventive, 7 days after the inoculation
[8] = test system: white fly (Bemisia tabaci); test: Bemisia tabaci-Test (BEMITA); format: in vivo; details: 168 h, spray on cotton plants, after 7 days
Source text: Bemisia tabaci-Test (BEMITA)
Cotton plants (Gossypium hirsutum) infested with eggs, larvae and pupae of the white fly (Bemisia tabaci) are sprayed with a test solution containing the desired concentration of the active ingredient.

[9] = test system: am. serpentine leaf miner (Liriomyza trifolii); test: Liriomyza trifolii-Test (LIRITR spray application); format: in vivo; details: 168 h, spray on French bean leaf-disks, after 7 days
Source text: Liriomyza trifolii-Test (LIRITR Spray Application)
as §3
French bean (Phaseolus vulgaris) leaf-disks infested with larvaes of the am. serpentine leaf miner (Liriomyza trifolii) are sprayed with a test solution containing the desired concentration of the active ingredient.

[10] = test system: green peach aphid (Myzus persicae); test: Myzus persicae-Test (MYZUPE); format: in vivo; details: 144 h, spray on cabbage leaves, after 6 days
Description: Myzus persicae-Test (MYZUPE)
as §2

[11] = test system: green peach aphid (Myzus persicae); test: Myzus persicae-Test (MYZUPE spray application); format: in vivo; details: 144 h, spray on Chinese cabbage leaf-disks, after 6 days
Source text: Myzus persicae-Test; (MYZUPE Spray Application)
as §1
Chinese cabbage (Brassica pekinesis) leaf-disks infected with all instars of the green peach aphid (Myzus persicae), are sprayed with a preparation of the active ingredient at the desired concentration.

[12] = test system: two-spotted spider mite (Tetranychus urticae); test: Tetranychus-Test (OP-resistant); format: in vivo; details: read-out: mortality in %
Source text: Tetranychus-Test (OP-Resistant)

[13] = test system: mustard beetle larvae (Phaedon cochleariae); test: Phaedon cochleariae-Test (PHAECO spray application); format: in vivo; details: 168 h, spray on Chinese cabbage leaf-disks, after 7 days
Source text: Phaedon cochleariae-Test; (PHAECO Spray Application)
as §3
Chinese cabbage (Brassica pekinesis) leaf-disks are sprayed with a preparation of the active ingredient of the desired concentration.

SMILES: Cc1ccc(C)c(C2=C(OC(=O)N(C)CCC#N)CC3(CCOCC3)CC2=O)c1
- melting point: 108 to 114 °C

SMILES: Cc1ccc(-c2ccc(Cl)cc2)cc1C1=C(O)CC2(CCOCC2)CC1=O [Compound T3]
- mortality at 500 g/ha [1]: ≥ 80%
- mortality at 100 ppm [2]: ≥ 80%
- mortality at 500 g/ha [3]: ≥ 80%
- mortality at 100 ppm [4]: ≥ 80%
- mortality at 100 ppm [5]: ≥ 80%
- mortality at 500 g/ha [6]: ≥ 80%
- Efficacy in % [7]: 75%
- mortality at 20 ppm [8]: ≥ 80%
- mortality at 500 g/ha [9]: ≥ 80%
- mortality at 100 ppm [10]: ≥ 80%

SMILES: CCc1cc(C)cc(CC)c1C1=C(O)CC2(CCOCC2)CC1=O [Compound T22]
- mortality at 500 g/ha [11]: ≥ 80%

SMILES: Cc1ccc(-c2ccc(F)cc2)cc1C1=C(O)CC2(CCOCC2)CC1=O [Compound T74]
- mortality at 500 g/ha [3]: ≥ 80%
- mortality at 500 g/ha [6]: ≥ 80%
- mortality at 20 ppm [8]: ≥ 80%
- mortality at 20 ppm [12]: ≥ 80%
- mortality at 500 g/ha [13]: ≥ 80%
- mortality at 500 g/ha [9]: ≥ 80%

SMILES: O=C1CC2(CCOCC2)CC(O)=C1c1cc(-c2ccc(F)cc2)ccc1Cl [Compound T75]
- mortality at 500 g/ha [1]: ≥ 80%
- mortality at 20 ppm [8]: ≥ 80%
- mortality at 500 g/ha [11]: ≥ 80%
- mortality at 500 g/ha [9]: ≥ 80%

SMILES: Cc1ccc(-c2ccc(F)cc2)c(C)c1C1=C(O)CC2(CCOCC2)CC1=O [Compound T76]
- mortality at 500 g/ha [1]: ≥ 80%
- mortality at 500 g/ha [3]: ≥ 80%
- mortality at 500 g/ha [13]: ≥ 80%
- mortality at 500 g/ha [11]: ≥ 80%
